From the supplement of paper PMC11451515

Tested on: SEM cells
Test: cell viability relative to DMSO control; higher = less cytotoxic
Details: 48 h
Method in brief: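 Library compounds in DMSO were pin-dosed in an 11-point threefold series (47 μM to 0.79 nM) onto leukemia cells in 1536-well plates (5 μl). Plates held 500 cells/well of NOMO1 or SEM or 1000 cells/well of P12-Ichikawa, each adapted for at least four passages in each medium. Luminescence was read with CellTiter-Glo One after 48 h at 37°C. Viability means the per-plate percentage relative to DMSO wells, using cell-free wells as background.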

[1] = HPLM + 10% dialyzed FBS, 0.000781 µM
[2] = HPLM + 10% dialyzed FBS, 0.00234 µM
[3] = HPLM + 10% dialyzed FBS, 0.00702 µM
[4] = HPLM + 10% dialyzed FBS, 0.0211 µM
[5] = HPLM + 10% dialyzed FBS, 0.0632 µM
[6] = HPLM + 10% dialyzed FBS, 0.19 µM
[7] = HPLM + 10% dialyzed FBS, 0.569 µM
[8] = HPLM + 10% dialyzed FBS, 1.71 µM
[9] = HPLM + 10% dialyzed FBS, 5.12 µM
[10] = HPLM + 10% dialyzed FBS, 15.4 µM
[11] = HPLM + 10% dialyzed FBS, 46.1 µM
[12] = RPMI 5 mM glucose + 10% FBS, 0.000781 µM
[13] = RPMI 5 mM glucose + 10% FBS, 0.00234 µM
[14] = RPMI 5 mM glucose + 10% FBS, 0.00702 µM
[15] = RPMI 5 mM glucose + 10% FBS, 0.0211 µM
[16] = RPMI 5 mM glucose + 10% FBS, 0.0632 µM
[17] = RPMI 5 mM glucose + 10% FBS, 0.19 µM
[18] = RPMI 5 mM glucose + 10% FBS, 0.569 µM
[19] = RPMI 5 mM glucose + 10% FBS, 1.71 µM
[20] = RPMI 5 mM glucose + 10% FBS, 5.12 µM
[21] = RPMI 5 mM glucose + 10% FBS, 15.4 µM
[22] = RPMI 5 mM glucose + 10% FBS, 46.1 µM
[23] = RPMI 5 mM glucose + 10% dialyzed FBS, 0.000781 µM
[24] = RPMI 5 mM glucose + 10% dialyzed FBS, 0.00234 µM
[25] = RPMI 5 mM glucose + 10% dialyzed FBS, 0.00702 µM
[26] = RPMI 5 mM glucose + 10% dialyzed FBS, 0.0211 µM
[27] = RPMI 5 mM glucose + 10% dialyzed FBS, 0.0632 µM
[28] = RPMI 5 mM glucose + 10% dialyzed FBS, 0.19 µM
[29] = RPMI 5 mM glucose + 10% dialyzed FBS, 0.569 µM
[30] = RPMI 5 mM glucose + 10% dialyzed FBS, 1.71 µM
[31] = RPMI 5 mM glucose + 10% dialyzed FBS, 5.12 µM
[32] = RPMI 5 mM glucose + 10% dialyzed FBS, 15.4 µM
[33] = RPMI 5 mM glucose + 10% dialyzed FBS, 46.1 µM

SMILES | cell viability [1] | cell viability [2] | cell viability [3] | cell viability [4] | cell viability [5] | cell viability [6] | cell viability [7] | cell viability [8] | cell viability [9] | cell viability [10] | cell viability [11] | cell viability [12] | cell viability [13] | cell viability [14] | cell viability [15] | cell viability [16] | cell viability [17] | cell viability [18] | cell viability [19] | cell viability [20] | cell viability [21] | cell viability [22] | cell viability [23] | cell viability [24] | cell viability [25] | cell viability [26] | cell viability [27] | cell viability [28] | cell viability [29] | cell viability [30] | cell viability [31] | cell viability [32] | cell viability [33]
CC(C)[C@H](N)C(=O)OCCOC[N]1C=NC2=C1\N=C(N)/NC2=O | 92.4% | 101% | 119% | 127% | 121% | 117% | 119% | 116% | 103% | 115% | 107% | 80.4% | 85.4% | 104% | 109% | 116% | 95.3% | 102% | 90.5% | 92.7% | 98.7% | 78% | 107% | 112% | 126% | 134% | 122% | 123% | 126% | 166% | 112% | 133% | 99%
CC/1=C(\O)C(=O)\C=C2/C1=C/C=C3\[C@@]2(C)CC[C@@]4(C)[C@@H]5C[C@@](C)(CC[C@]5(C)CC[C@]34C)C(O)=O | 109% | 102% | 102% | 119% | 113% | 109% | 118% | 97.6% | 10.9% | 8.14% | 5.78% | 126% | 97.9% | 102% | 117% | 118% | 111% | 110% | 85.7% | 8.55% | 7.7% | 6.91% | 97.7% | 91.4% | 103% | 79.8% | 112% | 89% | 108% | 61.1% | 8.59% | 9.09% | 6.92%
CC(C)(O)/C=C\C(=O)[C@](C)(O)[C@H]1[C@H](O)C[C@]2(C)[C@@H]3CC=C4[C@@H](C=C(O)C(=O)C4(C)C)[C@]3(C)C(=O)C[C@@]12C | 92.4% | 91.3% | 119% | 100% | 51.8% | 24% | 24% | 21.7% | 20.4% | 6.86% | 4.91% | 97.5% | 85.7% | 109% | 101% | 35% | 15.8% | 13.7% | 11% | 11.9% | 6.54% | 5.36% | 104% | 78.7% | 103% | 108% | 55.6% | 17.5% | 14.2% | 12.8% | 12.5% | 6.59% | 5.46%
N#C/C(C(=O)c1ccc(Cl)cc1Cl)=C1/NC(=O)c2ccc(Cl)cc2N1 | 124% | 132% | 124% | 125% | 129% | 121% | 123% | 112% | 110% | 117% | 111% | – | – | – | – | – | – | – | – | – | – | – | 99.5% | 125% | 131% | 126% | 127% | 108% | 111% | 137% | 79.5% | 105% | 108%
Cc1c[nH]c(-c2cnc(NCCNc3ccc(C#N)cn3)nc2-c2ccc(Cl)cc2Cl)n1 | 62.7% | 74.5% | 62% | 65.9% | 65.2% | 70.5% | 45.3% | 71.5% | 19.6% | 26.8% | 2.9% | 74.9% | 93.6% | 70.9% | 87.6% | 85.2% | 101% | 66.9% | 86.4% | 34.9% | 68.8% | 4.99% | 70.2% | 80.9% | 59.9% | 67% | 69.6% | 72.2% | 52.9% | 84% | 24% | 33.7% | 3.76%
CN1CCN(CCOc2cc(OC3CCOCC3)c3c(Nc4c(Cl)ccc5c4OCO5)ncnc3c2)CC1 | 106% | 119% | 115% | 118% | 122% | 126% | 113% | 116% | 78.4% | 61.6% | 30.3% | 121% | 120% | 128% | 110% | 128% | 109% | 85.5% | 109% | 62.9% | 34.3% | 19.7% | – | – | – | – | – | – | – | – | – | – | –
C[C@](N)(Cc1ccc(O)c(O)c1)C(=O)O | 83.9% | 85.7% | 94.4% | 86.3% | 102% | 92.5% | 84.1% | 81.7% | 83% | 74.8% | 6.26% | 94.7% | 106% | 100% | 111% | 103% | 81.6% | 69.2% | 93.5% | 86.2% | 72.9% | 3.7% | 103% | 93.7% | 95.9% | 111% | 97.8% | 91.1% | 98.5% | 96.1% | 88.2% | 77.4% | 4.47%
COC1=CC=C2/C3=N/CCN3\C(=N/C2=C1OC)NC(=O)C4=CC=CN=C4 | 98.5% | 98.2% | 106% | 96.8% | 101% | 104% | 96.7% | 103% | 87.1% | 82.5% | 64.1% | 91.6% | 94.4% | 99.7% | 89.5% | 99.5% | 79.4% | 85.2% | 99.6% | 76.6% | 80.6% | 55.7% | 122% | 111% | 111% | 103% | 117% | 113% | 99% | 92.9% | 84% | 81.1% | 69.2%
